Reference: a melting point compilation (Tetko et al.; mined from patent text by program, amines drawn as free bases though some values may be those of a salt)

Row | Compound | melting point
1 | O=C(NCCn1ccnc1)c1cc(N2CC2)c([N+](=O)[O-])cc1[N+](=O)[O-] | > 250 °C
2 | COc1cc(Nc2c(C#N)cnc3cc(Cl)c([N+](=O)[O-])cc23)cc(OC)c1OC | 215 to 217 °C
3 | CNC(=O)Nc1ccc(-c2ccncc2)c(C)n1 | 213 to 214 °C
4 | CCOc1cc(-c2cc(C(F)(F)F)n3ncc(C(=O)Nc4cccc(S(=O)(=O)N5CCOCC5)c4)c3n2)ccc1C(F)(F)F | 235 °C
5 | CN1CCC(c2cccc3c2C[C@H](NC(=O)c2ccc(N4CCOCC4)cc2)CC3)CC1 | 196 to 198 °C
6 | CO[C@H](C)C(=O)N[C@H]1CC[C@H](CCN2CCN(c3nccc4c3OCC4)CC2)CC1 | 170 °C
7 | N#Cc1cccc(-n2c(=O)c(CCCc3ccncc3)cc3cccnc32)c1 | 202 to 204 °C
8 | O=C(O)c1cn(C2CSC2)c2cc(F)c(F)cc2c1=O | 251 to 256 °C
9 | COC(=O)C(Cc1ccc(OCc2nc3ccc(Oc4ccc(C56CC7CC(CC(C7)C5)C6)cc4)cc3n2C)cc1)OCc1ccc(F)cc1 (centres undefined) | 118 to 120 °C
10 | O=C(Nc1ccc2c(c1)S(=O)(=O)NC1CCCN21)c1ccccc1 (centres undefined) | 293 °C
11 | COc1ccc(COc2ccc(/C=C/c3cc(/C=C/c4ccc5cc[nH]c5c4)n[nH]3)c(OC)c2)cc1 | 211 to 214 °C
12 | CCOC(C#CC(=NC(c1ccccc1)(c1ccccc1)c1ccccc1)C(F)F)OCC | 173 to 175 °C
13 | C=Cc1ccc2c(c1)c(=O)c(C(=O)NCc1ccc(Cl)cc1)cn2C | 193 to 196 °C
14 | Cc1cc(=O)[nH]nc1-c1ccc2c(c1)CC1(CCN(C3CCC3)CC1)O2 | 243 to 245 °C
15 | O=C(N[C@H]1CC[C@H](CCN2CCC(c3cccc4c3CCO4)CC2)CC1)c1ccc(Cl)cc1Cl | 188 °C
16 | CCCCNc1cc(C)nc2cn[nH]c12 | 160 to 170 °C
17 | NC(=O)N[C@H]1CC[C@H](NC(N)=O)CC1 | > 320 °C
18 | CCOC(=O)/C(=N\OC1CCSC1)c1csc(N)n1 (centres undefined) | 151 to 152 °C
19 | CN(C)c1ccc(N(c2ccccc2)C2(c3ccc(N(C)C)cc3)OC(=O)c3ccccc32)cc1 (centres undefined) | 163 to 166 °C

Row | Compound | melting point
20 | c1cc(-c2ccoc2)cc(-n2cnc3cc(-c4ccoc4)ccc32)c1 | 149 to 150 °C
21 | O=C(O)COc1nnc(C(Cl)(Cl)Cl)s1 | 100 °C
22 | COc1cc(Nc2c(C#N)cnc3cc(-c4cccc5ccccc45)ccc23)c(Cl)cc1Cl | 192 to 193 °C
23 | CC(C)NC(=O)c1ccc(C(=O)N2CCN(c3ncccc3N)CC2)nc1 | 142 to 143 °C
24 | NC(=O)Nc1c(C(O)(C(F)(F)F)C(F)(F)F)ccc2c1CCCC2 | 157 to 159 °C
25 | O=C(O)C(=O)c1ccc2c(c1)OCO2 | 144 to 146 °C
26 | CCOc1cc(O)c2cc(F)c(F)c(F)c2n1 | 171 °C
27 | Cc1nnc(CCl)n1-c1ccc(Cl)cc1C(=O)c1ccccc1 | 139 to 140 °C
28 | O=C(CBr)c1ccc(OCCO)cc1 | 78 °C
29 | CS(=O)(=O)Nc1ccc(NCC(=O)N2CCC(Cc3ccc(Cl)cc3)CC2)cc1 | 70 °C
30 | Cc1ccc(Sc2ccnc(Cl)n2)cc1 | 80 to 81 °C
31 | OC1(C2CC2)CSC(=S)N1c1ccccn1 (centres undefined) | 95 °C
32 | CN(C)C(=O)Cc1ccc(CNC(=O)[C@@H](CCCNC(N)=N[N+](=O)[O-])NC(=O)C(c2ccccc2)c2ccccc2)cc1 | 198 to 200 °C
33 | Cc1ccc(S(=O)(=O)N(O)S(=O)(=O)c2ccc(C)cc2)cc1 | 125 to 126 °C
34 | CCC(C)OS(=O)(=O)c1ccc(C(=O)c2cc(Cl)ccc2Cl)cc1 (centres undefined) | 73 to 74 °C
35 | NCc1ccc(N2CC(CN3CCC(CC(=O)O)CC3)OC2=O)cc1 (centres undefined) | 135 °C
36 | OOC12C=CC=CC=CC=CC=CC1=CC=CO2 (centres undefined) | 104 to 106 °C
37 | O=C(CCc1ccccc1)CN1C(=O)CC1S(=O)Cc1ccccc1 (centres undefined) | 110 to 111 °C
38 | Fc1cccc(Cl)c1-c1c(Cl)cc(-n2cncn2)nc1Cl | 210 °C

Row | Compound | melting point
39 | CC(=O)c1c(C)oc2c(-n3c(=O)cc(C(F)(F)F)n(C)c3=O)c(F)cc(Cl)c12 | 138 to 140 °C
40 | O=Cc1cccc(-c2cccs2)n1 | 48 to 50 °C
41 | CC(C)(C)C1(c2ccc(C(=O)O)cc2)OCCO1 | 214 to 216 °C
42 | CCCCNC(=O)NC(N)=O | 129 to 131 °C
43 | O=[N+]([O-])c1ccc2[nH]cc(C3=CCC4(CC3)OCCO4)c2c1 | 175 to 177 °C
44 | CCCC1(CCC)CCC2(CC1)CC(=O)OC(=O)C2 | 91 to 93 °C
45 | Fc1ccc(-c2ccco2)cc1 | 84 to 86 °C
46 | CN(C)c1cc(CC(=O)O)cc(Cc2nc3c(F)c(F)cc(F)c3s2)c1 | 114 to 115 °C
47 | CN(C)Cc1nc(C(N)=O)nn1-c1ccc(Cl)cc1C(=O)c1ccccc1Cl | 177 to 180 °C
48 | O=C(c1ccccc1Cl)P1(=O)Oc2ccccc2-c2ccccc21 (centres undefined) | 108 to 110 °C
49 | CC(C)=CCn1c(Cl)nc2c1c(=O)[nH]c(=O)n2C | 226 to 228 °C
50 | CN1CCN(c2cc(Cl)cc3c2c(=O)n(CCCc2ccccc2)c(=O)n3Cc2ccccc2)CC1 | 55 to 63 °C
51 | O[C@@H]1COC[C@H]1Oc1nc(N2CCNCC2)nc2ccccc12 (relative stereo) | 148 to 154 °C
52 | Cc1ccc(NC2CCCc3cc(C)cnc32)cc1 (centres undefined) | 83 to 85 °C
53 | O=C(CCCc1ccccc1)N[C@H](Cc1ccc(F)cc1)[C@@H](O)c1ccc(F)cc1 (racemic) | 147 to 148 °C
54 | O=C1c2ccccc2C(=O)N1CC1CCOC1 (centres undefined) | 114 to 118 °C
55 | NC(=O)CNC(=O)c1ccnc(-c2ccc3c(c2)C(c2ccc(Cl)cc2Cl)CC3)c1 (centres undefined) | 168 to 170 °C
56 | O=C(NN=Cc1ccc(Cl)cc1)c1cccnc1 | 188 to 190 °C

Second part, the compound after the results:

Row | melting point | Compound
57 | 202 to 204 °C | COC(=O)c1ccc2c(c1)C(Oc1ccccn1)C(O)C(C)(C)O2 (centres undefined)
58 | 101 °C | O=C1c2ccccc2C(=O)N1CCCSc1ncco1
59 | 223 to 225 °C | CCCOC(=O)C(C)NC(=O)C(CC(=O)O)NC(=O)C(C)N (centres undefined)
60 | 178 to 179 °C | CCCCNc1ncn(-c2c(CC)cccc2CC)c(=O)n1
61 | 142 to 144 °C | O=C(O)c1cc(S(=O)(=O)N(CCc2ccc(Cl)cc2)Cc2ccccc2)ccc1Br
62 | 290 to 292 °C | Cc1cc(C)c(-n2ccc3c(N)n[nH]c(=O)c32)c(C)c1
63 | 145 to 149 °C | CC(C)Cn1c(C(C)O)nc2c(N)nc3ccccc3c21 (centres undefined)
64 | 149 to 151 °C | COC(=O)C1=C(C)NC(C)=C(C(=O)OC)C1c1ccccc1COC(C)=O
65 | 183 to 184 °C | CC(C)C(=O)NC(=O)c1cccc(-c2noc(-c3ccccc3F)n2)c1
66 | 213 °C | O=C(O)CCCCCn1c2ccccc2c(=O)c2cc(Br)ccc21
67 | 100 °C | Cc1c(C(=O)c2cccs2)cccc1C(C)C(=O)O (centres undefined)
68 | 65 to 67 °C | CCCN(CCC)C(=O)c1cc(C(=O)N[C@@H](Cc2cc(F)cc(F)c2)[C@H](O)CNCc2cccc(CC)c2)cc(-c2ncco2)c1
69 | 188 to 190 °C | CCOC(=O)c1sc(-n2ccc(OCCC3CC3)cc2=O)nc1C
70 | 77 to 79 °C | CCCc1c(OC(C(=O)OCC)c2ccc(Cl)c(Cl)c2)ccc(C(C)=O)c1O (centres undefined)
71 | 81 to 82 °C | CC(C)NC(=O)Oc1ccccc1
72 | 182 to 184 °C | CCOC(=O)CCCOc1ccc(C(=O)Nc2ccccc2S(=O)(=O)c2ccccc2-c2nnn[nH]2)cc1
73 | 151 to 153 °C | CCOC(=O)c1cnc2c(N(C)Cc3ccccc3)cc(CN3CCOCC3)cc2c1O

Row | melting point | Compound
74 | 231 to 233 °C | Cn1c(=O)n(CC(=O)N(CCO)c2ccccc2)c2cnc(-c3ccccc3)nc21
75 | > 300 °C | Cc1ccccc1C=C1CCc2c1oc1ccc(C(=O)O)cc1c2=O
76 | 121 to 122 °C | CCN(C(=O)c1ccccc1-c1ccccc1)C(C)(C)c1ccccc1
77 | 83 to 85 °C | CCCCCc1c(C(C)C)nc(C(C)C)c(CO)c1-c1ccc(Cl)cc1
78 | 161 to 164 °C | NC(=O)N(O)Cc1ccc(OCc2csc(-c3ccccc3)n2)cc1
79 | 154 to 155 °C | CCCCOCCOc1ccc(-c2ccc(N3CCC(C)CC3)c(C=C(C)C(=O)O)c2)cc1
80 | 219 to 221 °C | CCCc1nn(C)c2c1N=C(c1cc(/C=C/C(=O)N(C)C)ccc1OCC)NC2
81 | 125 to 126 °C | CCOC(=O)C1=C(C)NC(CO)=C(C(=O)OCC)C1c1ccccc1OC (centres undefined)
82 | 73 to 74 °C | CC(=O)OCC1OC(SCCCc2ccccc2)C(OC(C)=O)C(OC(C)=O)C1OC(C)=O (centres undefined)
83 | 63 to 64 °C | CCC(Oc1cccc(OC)c1)C(=O)NCc1ccccc1 (centres undefined)
84 | 249 to 250 °C | CC(C)(C)c1ccc(C(=O)Nc2cn3cc(CO)ccc3n2)cc1
85 | 113 to 114 °C | COC(=O)c1cc([N+](=O)[O-])cc([N+](=O)[O-])c1SCc1ccccc1
86 | 178 °C | COc1cc2c(cc1OC)C(=O)NN(CCCO)C2
87 | 190 to 194 °C | COc1cc2ccccc2c(=O)c2cc(Cl)sc12
88 | 125 to 126 °C | CSc1ccc(NC(=O)CCCCCSc2nc3ccccc3o2)c(SC)n1
89 | 185 to 186 °C | CC(=O)Oc1ccc(C(=O)Oc2ccc(OC(=O)c3ccc(OC(C)=O)cc3)cc2)cc1
